# Assays:
# [1] = test system: more than 70 cancer cell lines; assay: Growth inhibition across cancer cell lines (GI50); assay type: cell-based; conditions: read-out: median concentration to achieve 50% growth inhibition (GI50); across more than 70 cancer cell lines
# γH2A.X = γH2A.X Western blot (DNA damage marker); assay type: cell-based, human
# 7SM0032 [2] = assay: Cell cycle analysis (PI, flow cytometry), nonmalignant cells; assay type: cell-based, human; conditions: 500 nM; nonmalignant 7SM0032 cells
# Method: (§1) FIGS. 3A-3D. Therapeutic properties of AOH1996. FIG. 3A: Normal cells (7SM0032) or cancer cells (SH-SY5Y and SK-N-BE(2)c) cells were fixed, stained with PI, and analyzed by flow cytometry following treatment with 500 nM AOH1996 for the indicated time. FIG. 3B: SK-N-DZ neuroblastoma cells and nonmalignant 7SM0032 stem cells were incubated with 500 nM AOH1996 for 24 h. Then, after being fixed on slides, cell apoptosis were analyzed by a TUNEL assay. Left: TMR fluorophore attached to the free ends of DNA indicates cells undergoing apoptosis. DAPI stained nuclei also shown. Right: Average abundance ±S.D. of apoptotic 7SM0032 (black histogram) and SK-N-DZ (grey histogram) cells relative to the total number of cells are shown in 5 randomly selected fields. FIG. 3C: Human SK-N-DZ neuroblastoma cells were treated with or without the indicated concentrations of cisplatin in the absence or presence of 500 nM of AOH1996 for 18 hours. […] The relative number of colonies determined in triplicates for each treatment condition were averaged and graphed ±SDs (*, P<0.01). […] Cell growth was measured as the percentage of cell confluence by imaging every 6 h for a total of 48 h.
# Cell Cycle Analysis. […] PI fluorescence intensity of the cells was measured by flow cytometry and the data was analyzed using the FlowJo program.
# 7SM0032 [3] = assay: Apoptosis (TUNEL assay), nonmalignant cells; assay type: cell-based, human; conditions: 500 nM, 24 h; 7SM0032 cells
# Method: as §1, with “fields.” for “fields. FIG. 3C: Human SK-N-DZ neuroblastoma cells were treated with or without the indicated concentrations of cisplatin in the absence or presence of 500 nM of AOH1996 for 18 hours.”
# Cell apoptosis was measured on a chamber slide at a seeding density of 1×10^5/mL. After treatment with 500 nM AOH1996 for 24 h, cells were fixed and analyzed by a TUNEL assay using the TMR red in situ cell death detection kit (Roche Diagnostics).
# [4] = test system: SK-N-BE(2)c xenograft tumors; assay: Xenograft tumor model, neuroblastoma; assay type: in vivo, mice
# Method: FIGS. 4A-4H. Pharmacokinetics and anti-tumor growth activity of AOH1996 in vivo. FIG. 4A: After oral administration, the plasma concentrations of AOH1996 from three male and three female ES1^e/SCID mice at the indicated time points were averaged and graphed ±S.D. The inset contains PK parameters determined by a standard noncompartmental method. FIG. 4B: A similar PK study of AOH1996 was performed in dogs. FIGS. 4C-4E: Mice bearing the xenograft tumors of neuroblastoma (FIG. 4C: SK-N-BE(2)c), breast cancer (FIG. 4D: MDA-MB-468), and small-cell lung cancer (FIG. 4E: H82) were given vehicle only (black) or 40 mg/kg of AOH1996 (grey) twice daily immediately after the first measurement. Tumor sizes were measured by a dial caliper each week. Tumor volumes (0.4×L×W^2) were averaged and graphed ±S.E. (*, P<0.01). FIG. 4F: Animal body weight was monitored throughout the studies as an indicator of toxicity. Shown is a typical study results from the study of the SK-N-BE(2)c tumor model described in (FIG. 4C). FIG. 4G: The levels of phosphor-Chk1 (pChk1) and γH2A.X in SK-N-BE(2)c derived tumor samples were analyzed by IHC. Shown are representative images taken from tumors treated by vehicle only or by 40 mg/kg AOH1996. FIG. 4H: ES1^e/SCID mice bearing SK-N-AS derived xenograft tumors were treated with either 80 mg/kg of AOH1996 (black, n=7) for 8 d beginning 8 d after tumor implantation, 15 mg/kg of CPT-11 (n=8) for 3 d beginning 12 d after tumor implantation, or both agents (combination, n=8) under the same dosages and schedules as they were dosed alone. […] The p values determined by the Log-rank (Mantel-Cox) test between combination treatment and each of the control groups are p=0.0003 (Combination vs. NoRx), p=0.005 (Combination vs. AOH1996 alone), and p=0.024 (Combination vs. CPT-11 alone).
# In vivo tumor model. […] Tumor size and animal weight were measured weekly. At the end of the experiment, tumors were isolated from sacrificed mice and analyzed by immunohistochemistry staining with antibodies specific for phosphor-Chk1 and γH2A.X.
# [5] = test system: nonmalignant cells, including human PBMCs, small airway epithelial cells (hSEAC), and neural crest stem cells (7SM0032); assay: Toxicity to nonmalignant cells
smiles,measurement,setting,value
"COc1cccc(Oc2ccccc2NC(=O)CNC(=O)c2cccc3ccccc23)c1 [AOH1996, N-(2-((2-(3-methoxyphenoxy)phenyl)amino)-2-oxoethyl)-1-naphthamide]",GI50,[1],~300 nM
same,"γH2A.X levels, cancer vs non-malignant cells","γH2A.X; 500 nM, SK-N-BE(2)c","caused accumulation of DNA damages as measured by γH2A.X levels in the SK-N-BE(2)c cancer cells, but not in non-malignant cells"
same,"γH2A.X levels, wildtype RPB1 vs Y418A mutant cells","γH2A.X; SK-N-AS, overnight",caused substantially more DNA damages as measured by γH2A.X levels in cells containing wildtype RPB1 allele than in cells homozygous of the Y418A mutant allele
same,change in cell-cycle profile,7SM0032 [2],does not significantly change the cell-cycle profiles
same,apoptosis,7SM0032 [3],Nor does it induce apoptosis in 7SM0032 cells
same,pharmacodynamics markers in tumors (immunohistochemistry),[4]; 40 mg/kg AOH1996 vs vehicle,Focal staining of γH2A.X and phospho-Chk1 were observed
same,tumor burden,"[4]; 40 mg/kg twice daily, oral, vs vehicle",significantly reduced tumor burden
same,"death, body weight","[4]; xenograft studies, 40 mg/kg twice daily",did not cause any death or significant weight loss
same,difference in sensitivity between cancer and normal cells,[5],30 fold
same,concentration up to which not significantly toxic,"[5]; human PBMCs, hSEAC, 7SM0032",at least 10 μM
